Where two headings read alike, the source gives them in different places. Values belong to the molecule of their own block, whether it stands above or below them. Peptide text beside a SMILES is read from it. * marks the point of attachment. Cbz = O=C(OCc1ccccc1)*
Tests used:
26S proteasome = target: T1, 26S proteasome (Homo sapiens, UniProt P28074); test: Chymotrypsin-like 26S proteasome function in crude cell extracts (SucLLVY-AMC fluorogenic peptide assay); assay type: biochemical; conditions: for Chymotryptic 26S Proteasome Activity in Lysates from ECV 304 Cells: activity relative to 0 μM = 1, mean ± SEM; for Effect on 26S proteasome function: data not shown
T1 construct: endogenous in cells; host or cells: ECV304 cells, crude extract
T1 sequence (P28074 60-263): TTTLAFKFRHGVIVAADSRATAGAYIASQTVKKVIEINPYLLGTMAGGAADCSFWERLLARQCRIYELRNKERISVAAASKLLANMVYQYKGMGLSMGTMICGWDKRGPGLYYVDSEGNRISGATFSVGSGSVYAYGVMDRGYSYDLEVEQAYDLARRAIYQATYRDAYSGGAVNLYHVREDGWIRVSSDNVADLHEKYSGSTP
Procedure: (§1) 20S and 26S proteasome function was measured as described previously (20). Briefly, cells were washed with PBS, then with buffer I (50 mM Tris, pH 7.4, 2 mM DTT, 5 mM MgCl2, 2 mM ATP), and pelleted by centrifugation. Glass beads and homogenization buffer (50 mM Tris, pH 7.4, 1 mM DTT, 5 mM MgCl2, 2 mM ATP, 250 mM sucrose) were added and vortexed for 1 minute. Beads and cell debris were removed by centrifugation at 1,000 × g for 5 minutes and 10,000 × g for 20 minutes. Protein concentration was determined by the BCA protocol (Pierce). One hundred μg protein of each sample was diluted with buffer I to a final volume of 1000 μl and the fluorogenic proteasome substrate SucLLVY-7-amido-4-methylcoumarin (chymotrypsin-like, Sigma) was added in a final concentration of 80 μM in 1% DMSO. To access 20S function, buffer I was replaced by an ATP-free buffer containing SDS (20 mM HEPES, pH 7.8; 0.5 mM EDTA, 0.03% SDS). Cleavage activity was monitored continuously by detection of free 7-amido-4-methylcoumarin using a fluorescence plate reader (Gemini, Molecular Devices) at 380/460 nm and 37°C. As controls for drug studies, 7-amido-4-methylcoumarin (AMC, 2 μM) was incubated with drugs in buffer I without cell extracts and measurements of proteasome function were corrected when necessary.

20S proteasome = target: T2, 20S proteasome (Homo sapiens, UniProt P28074); test: Chymotrypsin-like 20S proteasome function in crude cell extracts (ATP-free buffer with SDS, SucLLVY-AMC); assay type: biochemical
T2 construct: Chymotryptic 20S Proteasome Activity in Lysates from ECV 304 Cells; endogenous in cells; host or cells: ECV304 cells, crude extract
T2 sequence (P28074 60-263): T1 sequence (P28074 60-263)
Procedure: as §1

ECV304 cells = test: Drug accumulation assay: doxorubicin in cytoplasm and nuclear fraction of ECV304 cells; assay type: cell-based, human; conditions: MG-132 25 μM
Procedure: Stock solutions of all cytotoxic drugs were obtained from the hospital pharmacy of the University Clinic Freiburg. […] Control cells were subjected to DMSO treatment alone (0.5 %).
Growth medium on cells was replaced by PBS for 40 minutes at 37°C. This was replaced by fresh PBS containing daunorubicin or doxorubicin and MG-132 or anthracyclines alone. […] After drug treatment, the cells were washed twice with PBS, re-suspended in either 4 ml lysis buffer (0.3 M sucrose, 0.05 mM EGTA pH 8.0, 60 mM KCl, 15 mM NaCl, 15 mM HEPES pH 7.5, 150 μM spermine, 50 μM spermidine) containing 20 μl triton X-100 for nuclear isolation or 400 μl of 50% ethanol in 1 M HCl (v/v) for whole cell lysis. For the latter, cells were vortexed and diluted with water to a final volume of 1.4 ml. The cells in lysis buffer were mixed and left on ice for 15 minutes before centrifuging. The nuclei (pellet) were then vortexed with 400 μl HCl/isopropanol.

KB 8.5 cells = test: Apoptosis / morphological toxicity of KB 8.5 cells treated with MG-132; assay type: cell-based, human
Excerpt: The human epitheloid carcinoma cell line KB 8-5 is a well-characterized tumor cell line that over-expresses mdr-1 with associated MDR.

P-glycoprotein = target: T3, P-glycoprotein (Homo sapiens, UniProt P08183); test: Drug accumulation assay: daunorubicin fluorescence in P-gp overexpressing KB 8-5 cells; assay type: cell-based; conditions: different doses of MG-132 (0, 6.25, 12.5, 25, 50 μM), daunorubicin 10 μM, 45 minutes
T3 construct: accumulation of daunorubicin in KB 8-5 cells that overexpress P-glycoprotein; endogenous in cells; host or cells: KB 8.5 (KB 8-5) cells, maintained under colchicine selection
T3 sequence (P08183 whole entry): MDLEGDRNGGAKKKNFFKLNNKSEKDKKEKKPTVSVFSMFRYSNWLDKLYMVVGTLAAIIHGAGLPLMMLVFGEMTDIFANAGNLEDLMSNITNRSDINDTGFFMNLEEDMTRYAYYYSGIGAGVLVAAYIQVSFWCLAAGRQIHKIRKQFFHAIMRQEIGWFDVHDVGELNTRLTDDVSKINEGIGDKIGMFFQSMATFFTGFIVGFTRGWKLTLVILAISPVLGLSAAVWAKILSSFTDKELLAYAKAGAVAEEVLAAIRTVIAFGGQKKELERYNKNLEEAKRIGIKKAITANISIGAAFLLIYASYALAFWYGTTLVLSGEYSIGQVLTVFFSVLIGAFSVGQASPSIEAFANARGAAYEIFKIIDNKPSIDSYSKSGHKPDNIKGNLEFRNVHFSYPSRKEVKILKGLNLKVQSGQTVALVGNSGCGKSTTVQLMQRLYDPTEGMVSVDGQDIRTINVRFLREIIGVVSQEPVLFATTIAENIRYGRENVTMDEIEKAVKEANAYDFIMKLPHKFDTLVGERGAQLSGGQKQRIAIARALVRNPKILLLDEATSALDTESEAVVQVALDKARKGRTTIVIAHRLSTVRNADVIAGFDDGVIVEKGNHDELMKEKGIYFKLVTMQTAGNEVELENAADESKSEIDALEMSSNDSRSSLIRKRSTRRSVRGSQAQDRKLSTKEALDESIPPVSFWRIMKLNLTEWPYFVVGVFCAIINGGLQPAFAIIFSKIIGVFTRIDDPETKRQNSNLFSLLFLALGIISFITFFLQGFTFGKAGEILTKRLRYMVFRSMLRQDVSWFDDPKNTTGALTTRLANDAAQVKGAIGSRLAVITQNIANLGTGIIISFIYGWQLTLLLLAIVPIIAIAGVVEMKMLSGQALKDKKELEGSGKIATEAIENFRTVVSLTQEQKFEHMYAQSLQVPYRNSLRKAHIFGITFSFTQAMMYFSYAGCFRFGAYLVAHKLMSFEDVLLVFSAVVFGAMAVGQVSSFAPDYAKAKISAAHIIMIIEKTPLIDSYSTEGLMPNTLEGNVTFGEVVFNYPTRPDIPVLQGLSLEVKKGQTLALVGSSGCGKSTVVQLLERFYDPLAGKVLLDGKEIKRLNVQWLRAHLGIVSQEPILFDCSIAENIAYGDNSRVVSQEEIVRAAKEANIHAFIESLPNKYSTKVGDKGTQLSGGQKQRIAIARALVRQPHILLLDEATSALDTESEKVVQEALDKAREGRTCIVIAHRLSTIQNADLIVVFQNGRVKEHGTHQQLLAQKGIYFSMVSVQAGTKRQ

[1] = system: proteasome function (Ub-GFP accumulation) in ECV304/10 cells; test: Proteasome function in living ECV304/10 cells stably transfected with Ub-R-GFP fusion protein (fluorescence microscopy); assay type: cell-based, human; conditions: 100 μM
Procedure: ECV304 cells were plated at a density of 250.000 cells/well into six-well plates twelve hours before transfection. Cells were transfected with 5 μg of a plasmid (pEGFP-N1, Clontech) coding for an ubiquitin (Ub)-R-GFP fusion protein under control of a CMV promoter (a kind gift from Dr. M. Masucci, Karolinska Institute, Sweden) using the Superfect transfection kit (Qiagen) and following the manufacturer's instructions. Transfected cells were maintained in DMEM (10 % FSC, 1 % penicillin/streptomycin) supplemented with 500 μg/ml G418 (Sigma) and clones were obtained.

[2] = crude extracts of ECV304 cells, 0 – 100 μM drug, read-out: IC50, inhibition of 26S proteasome function
[3] = 6.25 μM, activity relative to 0 μM = 1, mean ± SEM
[4] = 25 μM, activity relative to 0 μM = 1, mean ± SEM
[5] = 50 μM, activity relative to 0 μM = 1, mean ± SEM
[6] = 100 μM, activity relative to 0 μM = 1, mean ± SEM

Chymotryptic 26S Proteasome Activity in Lysates from ECV 304 Cells (26S proteasome; 6.25 μM): 0.97 ± 0.03 n.s.
Chymotryptic 26S Proteasome Activity in Lysates from ECV 304 Cells (26S proteasome; 12.5 μM): 0.96 ± 0.02 n.s.
Chymotryptic 26S Proteasome Activity in Lysates from ECV 304 Cells (26S proteasome; 25 μM): 0.79 ± 0.12 n.s.
Chymotryptic 26S Proteasome Activity in Lysates from ECV 304 Cells (26S proteasome; 50 μM): 0.28 ± 0.09
Chymotryptic 26S Proteasome Activity in Lysates from ECV 304 Cells (26S proteasome; 100 μM): 0.1 ± 0.06
IC50 (26S proteasome; [2]): 38.6 µM
Chymotryptic 20S Proteasome Activity in Lysates from ECV 304 Cells (20S proteasome; [3]): 0.67 ± 0.07
Chymotryptic 20S Proteasome Activity in Lysates from ECV 304 Cells (20S proteasome; 12.5 μM, activity relative to 0 μM = 1, mean ± SEM): 0.67 ± 0.08
Chymotryptic 20S Proteasome Activity in Lysates from ECV 304 Cells (20S proteasome; [4]): 0.69 ± 0.05
Chymotryptic 20S Proteasome Activity in Lysates from ECV 304 Cells (20S proteasome; [5]): 0.67 ± 0.05
Chymotryptic 20S Proteasome Activity in Lysates from ECV 304 Cells (20S proteasome; [6]): 0.49 ± 0.11
IC50 (20S proteasome; crude extracts of ECV304 cells): 92 µM
Structure (SMILES): CC(=O)[C@]1(O)Cc2c(O)c3c(c(O)c2[C@@H](O[C@H]2C[C@H](N)[C@H](O)[C@H](C)O2)C1)C(=O)c1ccccc1C3=O [idarubicin]

Effect on 26S proteasome function (26S proteasome; crude extracts of ECV304 cells): no measurable effect
Structure (SMILES): CO[C@@]12[C@H](COC(N)=O)C3=C(C(=O)C(C)=C(N)C3=O)N1C[C@@H]1N[C@@H]12 [mitomycin C]

Effect on 26S proteasome function (26S proteasome; crude extracts of ECV304 cells): no measurable effect
Structure (SMILES): CC[C@@]1(O)C(=O)OCc2c1cc1n(c2=O)Cc2cc3c(CN(C)C)c(O)ccc3nc2-1 [Topotecan, topotecan]

Effect on 26S proteasome function (26S proteasome; crude extracts of ECV304 cells): no measurable effect
Structure (SMILES): Nc1ccn([C@@H]2O[C@H](CO)[C@@H](O)C2(F)F)c(=O)n1 [gemcitabine]

Continued, molecule first:

Structure (SMILES): CC(C)C[C@@H](C=O)NC(=O)[C@H](CC(C)C)NC(=O)[C@H](CC(C)C)NC(=O)OCc1ccccc1 [MG-132] (Cbz-Leu-Leu-Leu-aldehyde)
Uptake of doxorubicin in the cytoplasm and in the nuclear fraction (ECV304 cells): increased uptake of doxorubicin
Morphological signs of toxicity (KB 8.5 cells; KB 8-5 cells, 50 μM, 45 minutes of incubation): no morphological signs of toxicity
Induction of apoptosis (KB 8.5 cells; KB 8.5 cells, 3.125 to 50 μM, within 24 hours, preliminary experiments): induced apoptosis
Accumulation of daunorubicin in KB 8-5 cells (P-glycoprotein): increased, dose-dependent accumulation of daunorubicin

Structure (SMILES): COc1cccc2c1C(=O)c1c(O)c3c(c(O)c1C2=O)C[C@@](O)(C(=O)CO)C[C@@H]3O[C@H]1C[C@H](N)[C@H](O)[C@H](C)O1 [doxorubicin]
IC50 (26S proteasome): 65.5 µM
IC50 (20S proteasome): 5.8 µM
GFP accumulation indicating inhibition of proteasome function in living cells ([1]; ECV304/10 cells, 12 hours): GFP accumulated throughout the cytoplasm

Structure (SMILES): COc1cccc2c1C(=O)c1c(O)c3c(c(O)c1C2=O)C[C@@](O)(C(=O)CO)C[C@@H]3O[C@H]1C[C@H](N)[C@@H](O)[C@H](C)O1 [epirubicin]
IC50 (26S proteasome): 29.2 µM
IC50 (20S proteasome): 12.5 µM

Structure (SMILES): COc1cccc2c1C(=O)c1c(O)c3c(c(O)c1C2=O)C[C@@](O)(C(C)=O)C[C@@H]3O[C@H]1C[C@H](N)[C@H](O)[C@H](C)O1 [daunorubicin]
Chymotryptic 26S Proteasome Activity in Lysates from ECV 304 Cells (26S proteasome; 6.25 μM): 0.85 ± 0.05
Chymotryptic 26S Proteasome Activity in Lysates from ECV 304 Cells (26S proteasome; 12.5 μM): 0.53 ± 0.11
Chymotryptic 26S Proteasome Activity in Lysates from ECV 304 Cells (26S proteasome; 25 μM): 0.22 ± 0.09
Chymotryptic 26S Proteasome Activity in Lysates from ECV 304 Cells (26S proteasome; 50 μM): 0.12 ± 0.06
Chymotryptic 26S Proteasome Activity in Lysates from ECV 304 Cells (26S proteasome; 100 μM): 0.11 ± 0.06
IC50 (26S proteasome; [2]): 13.7 µM
Chymotryptic 20S Proteasome Activity in Lysates from ECV 304 Cells (20S proteasome): 0.64 ± 0.07 n.s.
Chymotryptic 20S Proteasome Activity in Lysates from ECV 304 Cells (20S proteasome; [3]): 0.62 ± 0.19 n.s.
Chymotryptic 20S Proteasome Activity in Lysates from ECV 304 Cells (20S proteasome; [4]): 0.81 ± 0.05 n.s.
Chymotryptic 20S Proteasome Activity in Lysates from ECV 304 Cells (20S proteasome; [5]): 0.95 ± 0.04 n.s.
Chymotryptic 20S Proteasome Activity in Lysates from ECV 304 Cells (20S proteasome; [6]): 1.05 ± 0.1 n.s.
Inhibition of 20S proteasome function (20S proteasome; crude extracts of ECV304 cells, up to 100 μM): not
GFP accumulation indicating proteasome inhibition in living cells ([1]; ECV304 Ub-GFP cells, 16 h (Figure 2 legend)): accumulation of GFP throughout the cytoplasm

Reference: article PMC1242219, “Anthracyclines, proteasome activity and multi-drug-resistance” (BMC Cancer, 2005)
